The AUC(0-inf) is the area under the concentration-time curve extrapolated to infinity. Read a high AUC(0-inf) as more exposure. One may read the Cmax as the peak of the concentration-time curve. What is called half-life is the time needed for the level to fall by half in the phase considered.

Structures can show the parent of a compound that is named as a salt. Where two headings read alike, the source gives them in different places.

One series deals with pancreatic cell lines. In words: CellTiter-Glo cell viability, pancreatic cell panel. The format is cell-based. The method, then: (§1) In vitro efficacy study was done using CellTiter-Glo® Luminescent Cell Viability Assay (Promega) with Corning Cat #3707 384well White Clear bottom plates. Cells were plated (1000 cells/well) in 384 well format and allowed to incubate @ 37 C for 24 hours. Monotherapy drugs were added at the 24 hr time point and then allowed to incubate @ 37 C for 24 hours. At the 48 hr time point the drugs in media were removed, washed with PBS, and fresh media was added. Cells were then allowed to incubate @ 37 C for 72 hours. At the 120 hr time point media was removed and CellTiter-Glo (CTG) reagent was added (1:1 ratio with PBS). Plate was read by luminometer (Envision Multilabel reader). More details of this assay can be found in Accelrys Notebook ELN as EXP-15-AC2111.
(§2) All cell lines had been adapted to and were maintained in RPMI with 10% fetal bovine serum and supplemented with penicillin/streptomycin (Invitrogen).
(§3) Data was analyzed using an in-house algorithm developed using Matlab (Mathworks, Natick MA). In summary, average CTG mean luminescent values were computed for 4 replicate wells. Outlier detection was performed by computing the coefficient of variation (CV>20%) and outliers were removed from the average. CTG values were normalized based on a control non-treated well. Drug concentration in microMolar (uM) was log transformed prior to fitting to a 4 parameter logistic curve.
(§4) Data quality control was performed to ensure that the concentration range is optimal according to these rules: (1) if the lowest concentration kills more than 70% of the cells the concentration range is deemed too potent (2) if the highest concentration kills less than 30% of the cells, the concentration range is deemed low or the cell line is too resistant. Additionally, goodness of the fit was evaluated using R^2 and R^2<0.9 is flagged as a bad fit. Statistical analysis was performed using JMP (SAS Institute Inc., NC).
(§5) Pancreatic cell lines were cultured to sub confluent state in 384 well plates prior to incubation with varying doses of SN-38 for 24 hours. Additions 72 hours of culture were performed prior to CTG assessment. Every well was run in 4 replicates, and the entire experiment was run in four different plates. The compared results from the four separate experiments show the reproducibility of the cytotoxic effects of SN-38.

Another series has as its system Panc6.03. In words: CellTiter-Glo cell viability. Format: cell-based. The settings on record: for IC50: Panc6.03, 24 h exposure + 72 h recovery. As for the experimental part:
as §1, §2, §3, §4, §5

A further series relates to Colo357. In words: CellTiter-Glo cell viability. Format: cell-based. The note with it: for IC50: Homo sapiens, Colo357, 24 h exposure + 72 h recovery. The method, then:
as §1, §2, §3, §4, §5

A further series deals with Capan-2. Nature of the series: CellTiter-Glo cell viability. The format is cell-based. The method, then: as §1, §2, §3, §4, §5
The next series deals with L3.3. In words: CellTiter-Glo cell viability. The format is cell-based. The settings on record: for IC50: L3.3, 24 h exposure + 72 h recovery. The method, then: as §1, §2, §3, §4, §5
Another series relates to Hs766t. Nature of the series: CellTiter-Glo cell viability. The format is cell-based. The note with it: for IC50: 24 h exposure + 72 h recovery. The method, then: as §1, §2, §3, §4, §5
On the technique in general: ATP-based viability assays read luminescence as a measure of living cells.

For a further series, the system named is Aspc1. Nature of the series: CellTiter-Glo cell viability. The format is cell-based. The note with it: for IC50: Homo sapiens, Aspc1, 24 h exposure + 72 h recovery. The method, then:
as §1, §2, §3, §4, §5

The next series has as its system PL45. In words: CellTiter-Glo cell viability. Format: cell-based. The note with it: for IC50: PL45, 24 h exposure + 72 h recovery. As for the experimental part: as §1, §2, §3, §4, §5
A further series concerns L3.6pL. Nature of the series: CellTiter-Glo cell viability. The format is cell-based. The note with it: for IC50: Homo sapiens, 24 h exposure + 72 h recovery. The method, then: as §1, §2, §3, §4, §5
Another series concerns BxPC3. In words: CellTiter-Glo cell viability. The note with it: for IC50: Homo sapiens, BXPC-3, BxPC3, 24 h exposure + 72 h recovery. Format: cell-based. As for the experimental part:
as §1, §2, §3, §4, §5

A further series relates to Miapaca2. Nature of the series: CellTiter-Glo cell viability. Format: cell-based. The settings on record: for IC50: Homo sapiens, MIA PaCa-2. As for the experimental part:
as §1, §2, §3, §4, §5

The next series relates to CFPAC1. Nature of the series: CellTiter-Glo cell viability. Format: cell-based. The note with it: for IC50: Homo sapiens, CFPAC-1. As for the experimental part: as §1, §2, §3, §4, §5
The next series has as its system HPAFII. In words: CellTiter-Glo cell viability. Format: cell-based. The settings on record: for IC50: Homo sapiens, HPAF-II, 24 h exposure + 72 h recovery. As for the experimental part:
as §1, §2, §3, §4, §5

In the next series the test system is Panc1. In words: CellTiter-Glo cell viability. Format: cell-based. As for the experimental part:
as §1, §2, §3, §4, §5

The next series relates to SU8686. Nature of the series: CellTiter-Glo cell viability. The format is cell-based. The note with it: for IC50: Homo sapiens, SU.86.86, SU8686, 24 h exposure + 72 h recovery. The method, then:
as §1, §2, §3, §4, §5

The next series deals with KP4. Nature of the series: CellTiter-Glo cell viability. Format: cell-based. The note with it: for IC50: Homo sapiens, KP-4, KP4, 24 h exposure + 72 h recovery. As for the experimental part: as §1, §2, §3, §4, §5
For a further series, the system named is SW1990. In words: CellTiter-Glo cell viability. Format: cell-based. The note with it: for IC50: Homo sapiens, SW1990, 24 h exposure + 72 h recovery. The method, then: as §1, §2, §3, §4, §5
A short description of the next series: clinical. The settings on record: human, in vivo, 300 mg/m2.
The nature of series [1]: NAPOLI-1 observed 5-FU concentration. The settings on record: human, in vivo, intravenous; read-out: 5-FU estimated half-life after the end of infusion.
The next series relates to Colorectal Cancer. The note with it: cited from earlier work.
[2] abbreviates: n 4, read-out: IC50 Log(μM) mean (converted).
The mark [3] stands for this setting: n 2, read-out: IC50 Log(μM) mean (converted).
Setting [4] is: n 3, read-out: IC50 Log(μM) mean (converted).
[5] abbreviates: Kohne 2013, continuous infusion.

As for `CCc1c2c(nc3ccc(O)cc13)-c1cc3c(c(=O)n1C2)COC(=O)[C@]3(O)CC` [SN-38], the “Tumor cell kill rates averaged across all cell lines” value in the series on pancreatic cell lines stood at 90%. The “decrease in cell viability for most cell lines” value in the series on pancreatic cell lines (24 h SN-38, additional 72 h culture) is given as “around 90%”. In addition, the IC50 with pancreatic cell lines (24 hours exposure, recovery period of 72 h, read-out: IC50 range across all pancreatic cell lines) was 0.001 to 100 nM; with pancreatic cell lines (basis of the uSN38 threshold, read-out: median IC50 in in-vitro pancreatic cell lines), 0.03 ng/mL; with Panc6.03 (setting [2]), 0.00115 µM; with Panc6.03 (read-out: IC50(nM) mean), 0.00115 µM; with Colo357 (setting [3]) it was 0.0617 nM; in the series with Colo357 (read-out: IC50(nM) mean), 0.0617 nM. The IC50 is 20.4 nM with Capan-2 (Capan-2, 24 h exposure + 72 h recovery, read-out: IC50(nM) mean); 20.4 nM in the series with Capan-2 (Homo sapiens, Capan-2, Capan-2, 24 h exposure + 72 h recovery, n 3, read-out: IC50 Log(μM) mean (converted)); 20.4 nM in the series on Capan-2 (Homo sapiens, Capan-2, Capan-2, 24 h exposure + 72 h recovery, read-out: IC50(nM) mean); 0.00204 nM in the series with L3.3 (setting [3]); 0.002 nM in the series with L3.3 (read-out: IC50(nM) mean); 63.1 nM in the series with Hs766t (read-out: IC50(nM) mean). Further, the IC50 in the series with Hs766t (Hs766T, n 2, read-out: IC50 Log(μM) mean (converted)) is 63.1 nM; with Hs766t (Hs766T, read-out: IC50(nM) mean), 63.1 nM; in the series with Aspc1 (setting [4]), 0.00398 µM; in the series with Aspc1 (read-out: IC50(nM) mean), 0.00398 µM; in the series with PL45 (setting [3]), 0.00355 nM; in the series on PL45 (read-out: IC50(nM) mean) it was 0.0035 nM. Also, the IC50 is 0.00282 nM in the series on L3.6pL (setting [3]); 0.0028 nM in the series on L3.6pL (read-out: IC50(nM) mean); 0.017 nM with BxPC3 (setting [3]); 0.017 nM in the series with BxPC3 (read-out: IC50(nM) mean); 0.0042 nM in the series with Miapaca2 (MiaPaCa2, read-out: IC50 concentration); 0.00417 nM with Miapaca2 (Miapaca2, 24 h exposure + 72 h recovery, n 3, read-out: IC50 Log(μM) mean (converted)). Besides, the IC50 in the series with Miapaca2 (Miapaca2, 24 h exposure + 72 h recovery, read-out: IC50(nM) mean) was 0.0042 nM; in the series on CFPAC1 (CFPAC1, 24 h exposure + 72 h recovery, n 2, read-out: IC50 Log(μM) mean (converted)) it was 0.00316 nM; in the series on CFPAC1 (CFPAC1, 24 h exposure + 72 h recovery, read-out: IC50(nM) mean), 0.0032 nM; in the series on CFPAC1 (CFPAC1, read-out: IC50 concentration) it was 0.0032 nM; in the series on HPAFII (setting [4]), 0.00204 µM; in the series with HPAFII (read-out: IC50(nM) mean), 0.00204 µM. Further, the IC50 in the series on Panc1 (Homo sapiens, PANC-1, Panc1, 24 h exposure + 72 h recovery, n 4, read-out: IC50 Log(μM) mean (converted)) is 0.0138 µM; in the series on Panc1 (Homo sapiens, PANC-1, Panc1, 24 h exposure + 72 h recovery, read-out: IC50(nM) mean) it was 0.0138 µM; in the series on Panc1 (Panc1, 24 h exposure + 72 h recovery, read-out: IC50(nM) mean), 0.0138 µM; in the series on SU8686 (setting [3]) it was 0.000692 µM; in the series with SU8686 (read-out: IC50(nM) mean), 0.000692 µM; in the series on KP4 (setting [3]) it was 0.00794 nM. Besides, the IC50 is 0.0079 nM with KP4 (read-out: IC50(nM) mean), 0.0871 nM in the series on SW1990 (setting [2]) and 0.0871 nM with SW1990 (read-out: IC50(nM) mean). The “Tumor Cell Kill (%) mean” value came to 87.68% in the series with Panc6.03 (Panc6.03); 94.47% in the series on Colo357 (Colo357); 94.61% in the series with Capan-2 (Capan-2); 93.01% in the series on L3.3 (L3.3); 86.41% in the series with Hs766t; 91.61% in the series with Aspc1 (Aspc1). The “Tumor Cell Kill (%) mean” value is given as 92.16% in the series on PL45 (PL45); 95.18% in the series with L3.6pL; 77.37% with BxPC3 (BxPC3); 91.23% with Miapaca2 (Miapaca2); 84.74% in the series on CFPAC1 (CFPAC1); 93.24% in the series with HPAFII. The “Tumor Cell Kill (%) mean” value is 89.54% in the series with Panc1 (Panc1), 95.82% in the series on SU8686 (SU8686), 86.62% in the series with KP4 (KP4) and 91.92% in the series with SW1990 (SW1990).

In “clinical”, `CCc1c2c(nc3ccc(OC(=O)N4CCC(N5CCCCC5)CC4)cc13)-c1cc3c(c(=O)n1C2)COC(=O)[C@]3(O)CC` [irinotecan HCl, (S)-4,11-diethyl-3,4,12,14-tetrahydro-4-hydroxy-3,14-dioxo1H-pyrano[3′,4′:6,7] indolizino[1,2-b]quinolin-9-yl-[1,4′bipiperidine]-1′-carboxylate] displayed an AUC(0-inf) of 24700 ng·h/mL and a Cmax of 4100 ng/mL.

As to `O=c1[nH]cc(F)c(=O)[nH]1` [5-FU, 5-fluorouracil], in series [1], the half-life was 8 to 14 min. In addition, the “Median OS (m)” value in the series with Colorectal Cancer (Kohne 2013, bolus 463-531 mg/m^2/week) is reported as “nrd”; with Colorectal Cancer (Kohne 2013, continuous infusion 800-3500 mg/m^2/week, N 797), “nrd”. The “OS 3 y” value in the series on Colorectal Cancer (Kohne 2013, bolus) is 85%; in the series with Colorectal Cancer (setting [5]), 85%. The “OS 5 y” value was 79% in the series on Colorectal Cancer (Kohne 2013, bolus) and 79% in the series on Colorectal Cancer (setting [5]). In the series on Colorectal Cancer (Kohne 2013 PETACC-2, BL 370-425 mg/m^2/d for 5 d q4w, N 804), the “Overall Survival HR, bolus vs continuous infusion (ref)” value is recorded as 0.96. The “OS HR across different 5-FU dose intensities and dose administrations” value in the series with Colorectal Cancer (meta-analysis, did not affect OS) is recorded as 0.96-1.11.

These data come from patent US20170333421A1, “Population Pharmacokinetics of Liposomal Irinotecan” (IPSEN BIOPHARM LTD., priority 2016, published 2017).
